Experimental data reported in patent publication US11344534B2, “Cholinergic agonism for the treatment of pancreatic cancer” (priority 2017, dated 2022).
Entries after “also recorded” stand apart in the source; their conditions may differ.

Test system: Chrm1
Assay: qRT-PCR of muscarinic receptor expression, murine PDAC cell lines
Assay type: cell-based, mouse
Conditions: murine PDAC cell lines (Panc02 and K8282), compared to control

In the case of `CC[C@@H]1C(=O)OC[C@@H]1Cc1cncn1C` [pilocarpine, (3S,4R)-3-ethyl-4-[(3-methylimidazol-4-yl)methyl]oxolan-2-one], the Chrm1 expression is reported as “decreased; also recorded: lower”.
